Test results reported in US8420670B2 (Abbott Laboratories, priority 2007, dated 2013).

How the values were obtained:
human GlyT1c transporter = target: T1, human GlyT1c transporter (Homo sapiens, UniProt P48067); assay: [3H]-(R)-NPTS radioligand binding assay using recombinant hGlyT1 expressing cell membranes; conditions: 0.5 nM [3H]-(R)-NPTS, apparent Ki via Cheng-Prusoff, read-out: [3H]-(R)-NPTS bindung Ki
T1 construct: expressed in transfected cells; host or cells: recombinant hGlyT1-expressing cells
T1 sequence (P48067 1-706): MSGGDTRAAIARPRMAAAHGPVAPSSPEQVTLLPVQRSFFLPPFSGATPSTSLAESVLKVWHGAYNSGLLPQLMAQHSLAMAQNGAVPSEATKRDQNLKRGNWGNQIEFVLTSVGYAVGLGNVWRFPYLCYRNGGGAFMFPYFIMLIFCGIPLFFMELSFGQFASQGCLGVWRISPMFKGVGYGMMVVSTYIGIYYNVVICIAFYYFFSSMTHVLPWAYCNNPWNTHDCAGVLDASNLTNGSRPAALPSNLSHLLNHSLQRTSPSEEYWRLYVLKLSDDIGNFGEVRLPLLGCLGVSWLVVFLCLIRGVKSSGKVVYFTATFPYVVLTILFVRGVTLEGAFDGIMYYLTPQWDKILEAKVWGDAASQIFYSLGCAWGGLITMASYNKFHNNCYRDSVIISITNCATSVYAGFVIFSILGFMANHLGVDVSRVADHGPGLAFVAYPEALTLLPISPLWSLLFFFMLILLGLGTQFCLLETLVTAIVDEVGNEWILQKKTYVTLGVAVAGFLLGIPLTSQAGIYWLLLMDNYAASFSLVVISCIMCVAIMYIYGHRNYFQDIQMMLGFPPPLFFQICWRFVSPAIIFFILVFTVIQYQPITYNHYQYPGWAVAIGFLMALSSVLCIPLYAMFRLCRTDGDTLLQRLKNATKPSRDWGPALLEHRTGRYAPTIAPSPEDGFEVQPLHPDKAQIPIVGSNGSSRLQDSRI
How it was run: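 Membranes expressing human GlyT1c (50 μg/ml protein) were incubated with 0.5 nM [3H]-(R)-NPTS in pH 7.5 HEPES/NaCl buffer with 1% DMSO for 1 h at room temperature, then filtered. Non-specific binding was defined with 10 μM Org24598, and IC50 values were converted to apparent Ki by Cheng-Prusoff.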

Human GlyT1c = target: T2, Human GlyT1c (Homo sapiens, UniProt P48067); assay: Glycine uptake in recombinant hGlyT1 expressing cells; assay type: cell-based; conditions: hGlyT1c_5_CHO cells; [3H]-glycine uptake, 60-120 min
T2 construct: expressed in transfected cells; host or cells: CHO (hGlyT1c_5_CHO clone)
T2 sequence (P48067 1-706): T1 sequence (P48067 1-706)
How it was run: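 Recombinant hGlyT1c CHO cells were washed in HBSS with 5 mM L-alanine, then given inhibitor and [3H]-glycine. Uptake was counted continuously by solid-phase scintillation for up to 3 h, with nonspecific uptake defined by 10 μM Org24598. IC50 came from four-parameter logistic fits over the linear 60–120 min range.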

SMILES | Ki (human GlyT1c transporter) [µM] | IC50 (Human GlyT1c) [µM]
COc1cccc2c(NC(CN3CCCC3)c3ccccc3)cc(C)nc12 (stereo not shown) [Example 69, (8-Methoxy-2-methylquinolin-4-yl)-(1-phenyl-2-pyrrolidin-1-ylethyl)-amine] | ≤ 10 | ≤ 10
COc1cccc2c(NC(c3ccc(Cl)cc3)c3nccn3C)cc(C)nc12 (stereo not shown) [Example 70, [(4-Chlorophenyl)-(1-methyl-1H-imidazol-2-yl)-methyl]-(8-methoxy-2-methylquinoline-4-yl)amine] | ≤ 10 | ≤ 100
COc1cccc2c(NC(CN(C)C)c3ccccc3)cc(C)nc12 (stereo not shown) [Example 71, N*1*-(8-Methoxy-2-methylquinolin-4-yl)-N*2*,N*2*-dimethyl-1-phenylethane-1,2-diamine] | ≤ 0.1 | ≤ 1
COc1cccc2c(NC(c3ccc(Cl)cc3)C3CC3)cc(C)nc12 (stereo not shown) [Example 72, [(4-Chlorophenyl)-cyclopropylmethyl]-(8-methoxy-2-methylquinolin-4-yl)-amine] | ≤ 1 | ≤ 10
COc1cccc2c(NC(c3ccncc3)c3ccc(Cl)cc3)cc(C)nc12 (stereo not shown) [Example 73, [(4-Chlorophenyl)-pyridin-4-ylmethyl]-(8-methoxy-2-methylquinolin-4-yl)-amine] | ≤ 1 | ≤ 1
COc1cccc2c(NC(C(N)=O)c3ccccc3)cc(C)nc12 (stereo not shown) [Example 74, 2-(8-Methoxy-2-methylquinolin-4-ylamino)-2-phenylacetamide] | ≤ 10 | ≤ 1000
COc1cccc2c(NC(CN)c3ccccc3)cc(C)nc12 (stereo not shown) [Example 75, N*1*-(8-Methoxy-2-methylquinolin-4-yl)-1-phenylethane-1,2-diamine] | ≤ 1 | ≤ 1
COc1cccc2c(N[C@H](CN(C)C)c3ccc(Cl)cc3)cc(C)nc12 [Example 76, (S)-1-(4-Chlorophenyl)-N*1*-(8-methoxy-2-methylquinolin-4-yl)-N*2*,N*2*-dimethylethane-1,2-diamine] | ≤ 0.001 | ≤ 0.1
COc1cccc2c(N[C@@H](CN(C)C)c3ccc(Cl)cc3)cc(C)nc12 [Example 77, (R)-1-(4-Chlorphenyl)-N*1*-(8-methoxy-2-methylquinoline-4-yl)-N*2*,N*2*-dimethylethane-1,2-diamin] | ≤ 1 | ≤ 10
COc1cccc2c(NC(CNCc3ccccc3)c3ccccc3)cc(C)nc12 (stereo not shown) [Example 78, N*2*-Benzyl-N*1*-(8-methoxy-2-methylquinolin-4-yl)-1-phenylethane-1,2-diamine] | ≤ 1 | ≤ 10
COc1cccc2c(NC(CNC(C)C)c3ccccc3)cc(C)nc12 (stereo not shown) [Example 79, N*2*-Isopropyl-N*1*-(8-methoxy-2-methylquinolin-4-yl)-1-phenylethane-1,2-diamine] | ≤ 10 | ≤ 10
COc1cccc2c(NCc3ccc(C(F)(F)F)c(Cl)c3)cc(C)nc12 [Example 80, (3-Chloro-4-trifluoromethylbenzyl)-(8-methoxy-2-methylquinolin-4-yl)-amine] | ≤ 1 | ≤ 1
Cc1cc(NCc2ccc(Cl)c(Cl)c2)c2cccc(Cl)c2n1 [Example 81, (8-Chlor-2-methylquinolin-4-yl)-(3,4-dichlorobenzyl)-amine] | ≤ 0.1 | ≤ 1
Cc1cc(NCc2ccc(Cl)c(Cl)c2)c2cccc(F)c2n1 [Example 82, (3,4-Dichlorobenzyl)-(8-fluoro-2-methylquinolin-4-yl)-amine] | ≤ 1 | ≤ 1
CSc1cccc2c(NCc3ccc(Cl)cc3)cc(C)nc12 [Example 83, (4-Chlorobenzyl)-(2-methyl-8-methylsulfanylquinolin-4-yl)-amine] | ≤ 1 | ≤ 1
COc1cccc2c(NCc3ccc(Cl)cc3)cc(C)nc12 [Example 84, (4-Chlorobenzyl)-(2-methyl-8-methoxyquinolin-4-yl)amine] | ≤ 1 | ≤ 1
Cc1cc(NCc2ccc(F)c(F)c2)c2cccc(C)c2n1 [Example 85, (3,4-Difluoro-benzyl)-(2,8-dimethyl-quinolin-4-yl)-amine] | ≤ 1 | ≤ 1
